Source: PMC5974162, “Characterization of Ferredoxin-Dependent Biliverdin Reductase PCYA1 Reveals the Dual Function in Retrograde Bilin Biosynthesis and Interaction With Light-Dependent Protochlorophyllide Oxidoreductase LPOR in Chlamydomonas reinhardtii” (Frontiers in Plant Science, 2018)

Biological target: T1, DtenPHY1 (Dolichomastix tenuilepis, UniProt A0A097CKJ3)
T1 construct: gene PHY; Twin-Strep-tag kept; expressed in Chlamydomonas CC400 cytosol, also in E. coli LMG194/pPL-PCB as control
Assay: zinc-dependent fluorescence of SDS-PAGE blot
Format: binding
Conditions: covalent; in vitro assembly with added PCB, TES pH 8.0, room temperature, ~2 h, dark; also without added PCB

T1 sequence (A0A097CKJ3 entry or part of it): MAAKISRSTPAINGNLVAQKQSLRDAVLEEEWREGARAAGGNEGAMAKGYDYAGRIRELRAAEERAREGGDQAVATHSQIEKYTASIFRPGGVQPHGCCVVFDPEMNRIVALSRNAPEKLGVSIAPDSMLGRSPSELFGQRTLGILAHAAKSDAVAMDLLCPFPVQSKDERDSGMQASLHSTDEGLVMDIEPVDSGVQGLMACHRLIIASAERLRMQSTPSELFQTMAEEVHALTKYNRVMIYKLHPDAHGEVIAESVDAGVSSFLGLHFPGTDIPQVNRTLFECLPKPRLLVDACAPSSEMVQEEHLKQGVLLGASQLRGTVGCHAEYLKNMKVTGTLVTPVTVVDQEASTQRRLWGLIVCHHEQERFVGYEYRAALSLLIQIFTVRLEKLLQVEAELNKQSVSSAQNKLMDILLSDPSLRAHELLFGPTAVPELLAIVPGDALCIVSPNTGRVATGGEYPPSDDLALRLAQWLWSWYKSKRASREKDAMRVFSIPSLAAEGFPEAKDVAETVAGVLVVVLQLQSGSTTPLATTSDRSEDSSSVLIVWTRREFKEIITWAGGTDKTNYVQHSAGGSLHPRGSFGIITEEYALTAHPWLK

CC=C1C(=Cc2[nH]c(C=C3N=C(C=C4NC(=O)C(CC)=C4C)C(C)=C3CCC(=O)O)c(CCC(=O)O)c2C)NC(=O)C1C (stereo not shown) [PCB, phycocyanobilin]
zinc-dependent fluorescence of SDS-PAGE blot: DtenPHY1 purified from Chlamydomonas CC400 covalently binds phycocyanobilin (PCB)
